Measurements published in patent publication US20100152136A1 (priority 2006, published 2010).

Tested on: newly diagnosed multiple myeloma patients
Assay: Total Therapy 2 (TT2) clinical trial, multivariate Cox regression of overall and event-free survival
Type: in vivo, human
Procedure: Purified plasma cells (PCs) were obtained from newly diagnosed multiple myeloma patients who were treated on NIH-sponsored clinical trials UARK 98-026 (Total Therapy 2, TT2) (n=351) and UARK 03-033 (Total Therapy 3, TT3) (n=214). Both protocols utilized induction regimens, followed by melphalan-based tandem autotransplants, consolidation chemotherapy and maintenance treatment.
The Kaplan-Meier method was to estimate OS. OS was defined as the time from the date of registration until death from any cause; survivors were censored at the time of last contact. Significance analysis of microarray (SAM) was used to determine statistically significant expression changes of genes in high- and low-TP53-expressing MM plasma cells. Univariate and multivariate analyses of prognostic factors were performed with the Cox regression.
The details of TT2 and TT3 protocols and their overall results have been reported previously; however, results related to 177 additional patients treated in a TT3 successor protocol to validate bortezomib pharmaco-genomic data have not been reported. The median follow-up times for TT2 and TT3 are 7.2 and 3.9 years, respectively. Both protocols and their revisions had been approved by the Institutional Review Board, and patients had signed a written informed consent in keeping with institutional and federal policies.
The Kaplan-Meier method was used to estimate overall and event-free survival with group comparisons made using the log-rank test. Overall survival and event-free survival were measured from the date of registration until death from any cause and disease relapse or death from any cause, respectively; survivors were censored at the time of last contact. Univariate and multivariate analyses of prognostic factors were carried out using Cox regression models.

[1] = TT2, randomization to thalidomide, 170/341 patients, multivariate analysis, median follow-up 7.2 years (Table 5)

Q: What does the source list for `O=C1CCC(N2C(=O)c3ccccc3C2=O)C(=O)N1` (stereo not shown) [Thalidomide]?
A: effect of randomization on event-free and overall survival (TT2, in words): beneficial effect; Event-Free Survival HR (95% CI) (TT2, randomization to thalidomide, 166/334 patients, multivariate analysis (Table 2)): 0.75 (0.60, 0.93); Event-free survival HR [1]: 0.61; Overall Survival HR [1]: 0.70
